Results published in publication PMC12948427 (The Journal of Clinical Investigation, 2025).
Where “and” joins values, the source holds several entries; their conditions need not be identical. Identical values can stand only once. Like-named read-outs stand apart in the source and are kept apart here.

Tests used:
HCoV-229E = experiment: In vitro antiviral activity assay (IFA), HCoV-229E; assay type: cell-based; conditions: for Inhibition rate (IFA): Fig 5F, MOI 0.1, 48 h
WIV1 [1] = experiment: microbe, parasite or virus in culture; assay type: cell-based, bat coronavirus WIV1; conditions: Bat coronavirus, 48 h, read-out: EC50 (IFA)
SARS-CoV-2 wild-type = experiment: microbe, parasite or virus in culture; assay type: cell-based
SARS-CoV-2 Omicron BA.5 = experiment: microbe, parasite or virus in culture; assay type: cell-based; conditions: Severe acute respiratory syndrome coronavirus 2, 24 h, read-out: EC50 (IFA)
WIV1 [2] = assay type: cell-based, bat coronavirus WIV1
MHV [3] = assay type: cell-based, mouse hepatitis virus (MHV)
HCoV-NL63 = experiment: In vitro antiviral activity assay (IFA), HCoV-NL63; assay type: cell-based; conditions: for Inhibition rate (IFA): Fig 5C, MOI 0.1, 48 h
MHV [4] = experiment: microbe, parasite or virus in culture; conditions: Murine coronavirus, 24 h, read-out: EC50, rescue of coronavirus-induced cytopathic effects
HCoV-OC43 = experiment: In vitro antiviral activity assay (IFA), HCoV-OC43; assay type: cell-based; conditions: for Inhibition rate (IFA): Fig 5E, MOI 0.1, 48 h
MHV [5] = test system: MHV
MHV [6] = experiment: microbe, parasite or virus in culture; assay type: cell-based, mouse hepatitis virus (MHV); conditions: Murine coronavirus, 24 h, read-out: EC50 (IFA)
[7] = assay type: cell-based
[8] = molecular target: M146 (SARS-CoV-2 M 135-146 peptide fused with HIV-TAT) (HIV | SARS-CoV-2) (UniProt P0DTC5); experiment: SPR
[9] = molecular target: M161 (SARS-CoV-2 M 135-161 peptide fused with HIV-TAT) (HIV | SARS-CoV-2) (UniProt P0DTC5); experiment: SPR
[10] = molecular target: M146 (SARS-CoV-2 M 135-146 peptide fused with HIV-TAT) (HIV | SARS-CoV-2) (UniProt P0DTC5); experiment: SPR; remark: listed apart in the source
[11] = molecular target: M161 (SARS-CoV-2 M 135-161 peptide fused with HIV-TAT) (HIV | SARS-CoV-2) (UniProt P0DTC5); experiment: SPR; remark: listed apart in the source

Chain of hHGS 1-390-6 × HIS protein (O14964 1-390): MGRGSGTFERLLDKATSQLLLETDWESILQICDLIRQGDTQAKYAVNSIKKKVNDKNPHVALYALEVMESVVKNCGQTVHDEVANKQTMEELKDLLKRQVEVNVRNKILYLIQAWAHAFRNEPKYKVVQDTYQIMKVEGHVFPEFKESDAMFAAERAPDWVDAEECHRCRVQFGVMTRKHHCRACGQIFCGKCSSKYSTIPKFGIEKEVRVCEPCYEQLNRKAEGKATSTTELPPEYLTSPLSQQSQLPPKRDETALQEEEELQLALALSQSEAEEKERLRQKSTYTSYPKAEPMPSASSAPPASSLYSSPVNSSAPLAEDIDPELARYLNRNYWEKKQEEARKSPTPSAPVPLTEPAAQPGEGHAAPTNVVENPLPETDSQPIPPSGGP
Chain of M161 (SARS-CoV-2 M 135-161 peptide fused with HIV-TAT) (HIV | SARS-CoV-2) (P0DTC5 135-161 limits assumed): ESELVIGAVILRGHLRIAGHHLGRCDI

## CCC(CC)COC(=O)[C@H](C)N[P@](=O)(OC[C@H]1O[C@@](C#N)(c2ccc3c(N)ncnn23)[C@H](O)[C@@H]1O)Oc1ccccc1 [RDV, remdesivir]
17Cl-1 cells; concentration 0.01
  cell viability, Figures S9A, B, D-F: 103.896 and 102.857
17Cl-1 cells; concentration 0.03
  cell viability, Figures S9A, B, D-F: 100
17Cl-1 cells; concentration 0.1
  cell viability, Figures S9A, B, D-F: 100
17Cl-1 cells; concentration 0.3
  cell viability, Figures S9A, B, D-F: 100
17Cl-1 cells; concentration 1
  cell viability, Figures S9A, B, D-F: 100
17Cl-1 cells; concentration 3
  cell viability, Figures S9A, B, D-F: 100
17Cl-1 cells; concentration 10
  cell viability, Figures S9A, B, D-F: 100
17Cl-1 cells; concentration 25
  cell viability, Figures S9A, B, D-F: 100
HCoV-229E; conc 30 (unit not given)
  Inhibition rate (IFA): -0.99% and -1.45% and 0.82%
HCoV-229E; conc 100 (unit not given)
  Inhibition rate (IFA): -0.44% and -1.37% and -2.88%
HCoV-229E; conc 300 (unit not given)
  Inhibition rate (IFA): 11.16% and 13% and 6.71%
HCoV-229E; conc 1000 (unit not given)
  Inhibition rate (IFA): 47.55% and 40.71% and 45.97%
HCoV-229E; conc 3000 (unit not given)
  Inhibition rate (IFA): 81.01% and 82.05% and 81.07%
HCoV-229E; conc 10000 (unit not given)
  Inhibition rate (IFA): 97.22% and 97.53% and 97.6%
HCoV-229E; conc 25000 (unit not given)
  Inhibition rate (IFA): 98.73% and 98.28%
HCoV-229E; Human coronavirus 229E, 48 h, read-out: EC50 (IFA)
  EC50: 1010 nM
WIV1 [1]
  EC50: 2420 nM
SARS-CoV-2 wild-type
  Inhibition rate (IFA): -18.2121%
SARS-CoV-2 wild-type; Severe acute respiratory syndrome coronavirus 2, 24 h, read-out: EC50 (IFA)
  EC50: 3510 nM
SARS-CoV-2 Omicron BA.5
  EC50: 1730 nM
WIV1 [2]
  extracellular viral gRNA levels (RT-qPCR): 1.00 and 2.00
MHV [3]; Ctr 17Cl-1 cells, 24 hpi
  Extracellular MHV gRNA (Figure S11A): 1.417 and 1.434 and 1.4484
MHV [3]; Ctr 17Cl-1 cells, 48 hpi
  Extracellular MHV gRNA (Figure S11A): 2.342 and 2.426 and 2.427
MHV [3]; Ctr 17Cl-1 cells, 72 hpi
  Extracellular MHV gRNA (Figure S11A): 2.913 and 2.938 and 2.965
MHV [3]; Hgs-KO1 17Cl-1 cells, 24 hpi
  Extracellular MHV gRNA (Figure S11A): 0.1732 and 0.2504 and 0.2945
MHV [3]; Hgs-KO1 17Cl-1 cells, 48 hpi
  Extracellular MHV gRNA (Figure S11A): 0.5159 and 0.4955 and 0.5011
MHV [3]; Hgs-KO1 17Cl-1 cells, 72 hpi
  Extracellular MHV gRNA (Figure S11A): 0.5763 and 0.5575 and 0.5302
MHV [3]; Hgs-KO2 17Cl-1 cells, 48 hpi
  Extracellular MHV gRNA (Figure S11A): 0.243 and 0.2742 and 0.2718
MHV [3]; Hgs-KO2 17Cl-1 cells, 72 hpi
  Extracellular MHV gRNA (Figure S11A): 0.4771 and 0.48 and 0.4728
MHV [3]; MHV, Hgs-KO 17Cl-1, RTB 25 μM or RDV 5 μM, compared with DMSO-treated Hgs-KO cells
  antiviral activity in Hgs-KO cells: maintained potent antiviral activity
HCoV-NL63; conc 10 (unit not given)
  Inhibition rate (IFA): -13.7402% and -16.2366% and -15.0261%
HCoV-NL63; conc 300 (unit not given)
  Inhibition rate (IFA): 80.1311% and 63.4462% and 86.5422%
HCoV-NL63; conc 1000 (unit not given)
  Inhibition rate (IFA): 98.8533% and 99.4472% and 99.9344%
HCoV-NL63; conc 3000 (unit not given)
  Inhibition rate (IFA): 99.4236% and 99.6729% and 98.5431%
HCoV-NL63; conc 10000 (unit not given)
  Inhibition rate (IFA): 99.8898% and 100.315% and 100.324%
HCoV-NL63; conc 25000 (unit not given)
  Inhibition rate (IFA): 100.095% and 100.184% and 100.326%
HCoV-NL63; Human coronavirus NL63, 48 h, read-out: EC50 (IFA)
  EC50: 200 nM
MHV [4]
  EC50: 690 nM
HCoV-OC43; Betacoronavirus 1, OC43, 48 h, read-out: EC50 (IFA)
  EC50: 410 nM
HCoV-OC43; conc 10 (unit not given)
  Inhibition rate (IFA): 50.23% and 41.56% and 35.15%
HCoV-OC43; conc 30 (unit not given)
  Inhibition rate (IFA): 35.85% and 33.9% and 36.83%
HCoV-OC43; conc 100 (unit not given)
  Inhibition rate (IFA): 54.42% and 40.68% and 45.58%
HCoV-OC43; conc 300 (unit not given)
  Inhibition rate (IFA): 65.9% and 68.1% and 71.65%
HCoV-OC43; conc 1000 (unit not given)
  Inhibition rate (IFA): 93.48% and 93.42% and 95.53%
HCoV-OC43; conc 3000 (unit not given)
  Inhibition rate (IFA): 103.3% and 99.46% and 99.73%
HCoV-OC43; conc 10000 (unit not given)
  Inhibition rate (IFA): 112.73% and 104.65% and 109.25%
HCoV-OC43; conc 25000 (unit not given)
  Inhibition rate (IFA): 117.32% and 112.33% and 115.73%
MHV [5]; concentration 10
  viability of infected cells (rescue of cytopathic effect), Figures S9G-L: 46.7323 and 45.5347 and 44.3372
MHV [5]; concentration 30
  viability of infected cells (rescue of cytopathic effect), Figures S9G-L: 45.5347 and 43.8916 and 43.4181
MHV [5]; concentration 100
  viability of infected cells (rescue of cytopathic effect), Figures S9G-L: 50.492 and 47.7906 and 49.378
MHV [5]; concentration 300
  viability of infected cells (rescue of cytopathic effect), Figures S9G-L: 59.7939 and 57.0925 and 55.143
MHV [5]; concentration 1000
  viability of infected cells (rescue of cytopathic effect), Figures S9G-L: 78.2027 and 84.5804 and 83.9955
MHV [5]; concentration 3000
  viability of infected cells (rescue of cytopathic effect), Figures S9G-L: 102.237 and 100.176 and 102.46
MHV [5]; concentration 10000
  viability of infected cells (rescue of cytopathic effect), Figures S9G-L: 103.491 and 100.789 and 102.906
MHV [5]; concentration 25000
  viability of infected cells (rescue of cytopathic effect), Figures S9G-L: 101.903 and 103.017 and 102.042
MHV [6]
  EC50: 1290 nM
[7]; 1h, concentration 30 (unit not given)
  Inhibition, time-of-drug-addition (Figures S12A, S12B): 5.191 and 6.604 and 3.913
[7]; 1h, concentration 300 (unit not given)
  Inhibition, time-of-drug-addition (Figures S12A, S12B): 29.4212 and 36.852 and 30.2123
[7]; 1h, concentration 1000 (unit not given)
  Inhibition, time-of-drug-addition (Figures S12A, S12B): 94.0553 and 94.9808 and 93.9778
[7]; 1h, concentration 3000 (unit not given)
  Inhibition, time-of-drug-addition (Figures S12A, S12B): 100.171 and 99.7032 and 100.277
[7]; 1h, concentration 10000 (unit not given)
  Inhibition, time-of-drug-addition (Figures S12A, S12B): 100.334 and 99.9318 and 99.6732
[7]; 1h, concentration 25000 (unit not given)
  Inhibition, time-of-drug-addition (Figures S12A, S12B): 99.7405 and 99.6154 and 100.895
[7]; 3h, concentration 300 (unit not given)
  Inhibition, time-of-drug-addition (Figures S12A, S12B): 9.79 and 17.6203 and 16.0643
[7]; 3h, concentration 1000 (unit not given)
  Inhibition, time-of-drug-addition (Figures S12A, S12B): 55.9963 and 60.6001 and 59.2495
[7]; 3h, concentration 3000 (unit not given)
  Inhibition, time-of-drug-addition (Figures S12A, S12B): 88.3762 and 86.7679 and 87.568
[7]; 3h, concentration 10000 (unit not given)
  Inhibition, time-of-drug-addition (Figures S12A, S12B): 90.2121 and 88.9101 and 87.2358
[7]; 3h, concentration 25000 (unit not given)
  Inhibition, time-of-drug-addition (Figures S12A, S12B): 90.2507 and 90.1885 and 92.1218
[7]; 5h, concentration 1000 (unit not given)
  Inhibition, time-of-drug-addition (Figures S12A, S12B): 25.3228 and 41.8171 and 37.9682
[7]; 5h, concentration 3000 (unit not given)
  Inhibition, time-of-drug-addition (Figures S12A, S12B): 84.9456 and 81.9798 and 79.5741
[7]; 5h, concentration 10000 (unit not given)
  Inhibition, time-of-drug-addition (Figures S12A, S12B): 96.9121 and 98.7645 and 101.081
[7]; 5h, concentration 25000 (unit not given)
  Inhibition, time-of-drug-addition (Figures S12A, S12B): 101.735 and 102.093 and 102.226
[7]; 7h, concentration 3000 (unit not given)
  Inhibition, time-of-drug-addition (Figures S12A, S12B): 42.654 and 32.1868 and 38.6066
[7]; 7h, concentration 10000 (unit not given)
  Inhibition, time-of-drug-addition (Figures S12A, S12B): 72.2116 and 77.3057 and 82.6181
[7]; 7h, concentration 25000 (unit not given)
  Inhibition, time-of-drug-addition (Figures S12A, S12B): 95.7566 and 91.5378 and 92.3496
[7]; RTB 25 μM or RDV 5 μM added at 0, 2, 4 or 6 hpi
  antiviral activity versus time of treatment start: decreased in a time-dependent manner

## hHGS 1-390-6 × HIS protein (from UniProt O14964 1-390) (domain or fragment)
[8]
  Kd: 5.73 nM
[9]
  Kd: 3.84 nM
[10]
  Kd: 210 nM
[11]
  Kd: 830 nM
